Where two headings read alike, the source gives them in different places.
Columns and labels:
[1] = tested on: sodium channel of organoid neurons (cell lines IMR-90 and GM25256); type: cell-based, human
[2] = tested on: cells of the cell line IMR90; assay: Optic vesicle formation in iPSC-derived 3D brain organoids exposed to retinol acetate; type: cell-based, human; details: for Percentage of organoids with optic vesicles (%): cell line IMR90
Protocol: It is important to start differentiation with a well-maintained human iPS cell culture. Cells were splitted once after thawing, mycoplasma tested and checked for appropriate stem cell morphology. Before inducing neural differentiation, iPS cells were dissociated to single cells. Therefore, iPS cells were once carefully washed with pre-warmed DMEM/F12 (Gibco) and then treated for 5 min. at 37° C. with Accutase (Sigma-Aldrich). After cell collection, centrifuging and counting, cells were diluted in neural induction medium (NIM, Stem cell technologies) plus Rockinhibitor (10 μM, Y-27632 2HCl, Selleck Chem) at a concentration of 1×10^5 cells per ml. 100 μl of this cell suspension was given into each well of a 96-well v-bottom low adherent plate and incubated at 37° C. and 5% CO2. Half of the medium was changed every day for 5 days until neurospheres were formed.
At day 5 of neural induction, the neurospheres were collected carefully with a cut […] pipette tip and transferred to a 100 mm petri dish containing “neurosphere medium” (Table 9). Additionally, 0.1% Matrigel was added to the medium and neurospheres were incubated for 5 days at 37° C. and 5% CO2. At day 3, 2 ml of “optic vesicle 3D brain organoid medium” (Table 10) containing retinol acetate was added. At day 5, neurospheres were transferred to spinner flasks containing 100 ml “optic vesicle 3D brain organoid medium” ([…]) to let the neurospheres developing to optic vesicle containing brain organoids. […] Optic vesicle organoids were collected for experiments at day 20, 30 and 50. For each cell line, we performed at least 3-4 rounds (batches) of optic vesicle 3D brain organoid generation. Each batch comprises of starting from thawing iPSCs until generating optic vesicle organoids. Morphological and functional optic vesicles brain organoids were easily identified by visibly pigmented areas and used for further analyses.

[3] = tested on: A2E formation and lipofuscin accumulation; details: mouse model of recessive Stargardt's macular degeneration; cited from earlier work
[4] = tested on: rod-bipolar synaptic disjunction; details: cited from earlier work
[5] = tested on: optic vesicle brain organoids (cell line GM25256)
Protocol: Optic vesicle organoids of day 40 to 50 were transferred to wells of a 12-wellplate each with 2 ml of optic organoid medium and kept in absolute darkness at 37° C. and 5% CO2 for 24 hours before electroretinogram (ERG) experiments. For ERG, each organoid was placed under red light in an electrode chamber. The electrode chamber was then placed into the dark chamber of the ERG apparatus and connected to the superfusion system containing optic organoid medium. For dose dependent light sensitivity, organoids were exposed to 500 milliseconds long flashes of 2000, 20.000 and 200.000 mlux. Each light intensity was repeated three times in a time interval of 3 min. before the next higher light intensity was applied and responses were recorded. Speed of superfusion was 0.5 ml/min.
For a third experiment, organoids were superfused in optic organoid medium with higher speed of 2 ml/min. […] For isolating the A-wave by blocking signal transduction from photoreceptors to next the retinal cell layers, 10 mM aspartate was added to the medium after the equilibration time and electric response was continuously recorded. Finally, aspartate was washed out by adding optic organoid medium without aspartate into the system while recording of electric signals as response to flashes.

NC1=N[C@H](O)[C@H]2[C@H]3O[C@]4(O)O[C@@H]([C@@H](O)[C@@]2(N1)[C@@H]4O)[C@]3(O)CO [TTX, Tetrodotoxin]
Effect on Na+ current (inward current) of neurons [1]: blocked Na+ current | Sensitivity of outward (outwardly rectifying K+) current [1]: TTX insensitive

retinol acetate [Retinoic acetate]
Percentage of organoids with optic vesicles (%) ([2]; 40 nM): 21% | Yield of optic vesicle brain organoids ([2]; 60 nM, among concentrations ranging from 0 to 120 nM): best results (highest yield of optic vesicle brain organoids) | Formation of pigmented structures (possibly primordial eye fields) ([2]; 60 nM, at around day 30): reproducibly induced the formation of pigmented structures | Percentage of organoids with optic vesicles (%) ([2]; 60 nM): 80% | Percentage of organoids with optic vesicles (%) ([2]; 100 nM): 15% | Percentage of organoids with optic vesicles (%) ([2]; 150 nM): 10% | Percentage of organoids with optic vesicles (%) ([2]; 200 nM): 10% | Percentage of organoids with optic vesicles (%) ([2]; 250 nM): 8%

CC1=C(/C=C/C(C)=C/C=C/C(C)=C\C(=O)O)C(C)(C)CCC1 [isotretinoin]
Effect on A2E formation and lipofuscin accumulation [3]: inhibits A2E formation and lipofuscin accumulation

O=S(=O)(c1cccc2cnccc12)N1CCCNCC1 [fasudil]
Effect on rod-bipolar synaptic disjunction ([4]; intravitreal injection): effective | Effect on rod-bipolar synaptic disjunction ([4]; subretinal injection): reduces rod-bipolar synaptic disjunction

N[C@@H](CC(=O)O)C(=O)O [aspartate]
ERG amplitude upon light flashes, single organoid recording [5]: < −400 pV | ERG hyperpolarization after washout of aspartate [5]: −147 pV | ERG hyperpolarization on average during aspartate treatment [5]: −278 pV | Effect on ERG b-wave [5]: blocked the b-wave
